{
  "source": "ChEMBL document CHEMBL1201862",
  "about": "“PubChem BioAssay data set” (2004)",
  "key": {"cells [1]": {"assay": "cells"}, "Major prion protein": {"target": "Major prion protein (Homo sapiens, UniProt P04156)", "type": "functional, cell-based"}, "[2]": {"target": "Potassium channel subfamily K member 9 (Homo sapiens, UniProt Q9NPC2)", "assay": "TASK3 (KCNK9) channel inhibitors, thallium flux, SAR follow-up, selectivity assay for TASK1 inhibitor project, cell-based, FluxOR thallium flux, concentration-response (AID 652211);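 note: potency is for inhibitors of the channel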", "type": "functional"}, "[3]": {"assay": "control 3'UTR Renilla luciferase suppression, dose response, counter-screen for Shn3 inhibitor project, cell-based, Clone20-Shn3RL, cherry-picked (AID 624133)", "type": "functional"}, "[4]": {"assay": "inhibitors of control Renilla luciferase reporter, dose response, counter-screen for Shn3 3'UTR targeting project, Clone20-Shn3RL cells, dual-Glo, cherry-pick, set 2 (AID 720724)", "type": "functional, cell-based", "details": "Dual-Go Shn3RL"}, "[5]": {"assay": "reduction of Shn3 3'UTR firefly luciferase signal, dose response, Schnurri-3 inhibitor project, cell-based, Clone20 osteoblasts, cherry-pick, set 2 (AID 720490);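 note: actives lower the luminescence signal as inhibitors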", "type": "functional"}, "[6]": {"assay": "HepG2 cell cytotoxicity, dose response, cytotoxicity control for Shn3 inhibitor project, CellTiter-Glo, cherry-picked (AID 624134)", "type": "functional, cell-based"}, "cells [7]": {"assay": "cells", "type": "functional, cell-based", "details": "HEK-CNG"}, "Galanin receptor type 3": {"target": "Galanin receptor type 3 (Homo sapiens, UniProt O60755)", "assay": "Fluorescence-based cell-based primary high throughput dose response assay to identify antagonists of the Galanin Receptor 3 (GalR3).", "type": "functional"}, "[8]": {"assay": "Shn3 3'UTR reporter inhibitors, dose response, cell-based, Clone20 osteoblasts, firefly luciferase, cherry-picked (AID 624132);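 note: firefly luciferase luminescence from reporter carrying the Shn3 3'UTR in osteoblasts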", "type": "functional"}, "[9]": {"assay": "IGROV1 ovarian cancer cell cytotoxicity, dose response, PAX8 inhibitor project, plate reader, dry powder samples (AID 743043)", "type": "functional, cell-based", "details": "IGROV-1"}, "[10]": {"assay": "PAX2 cell-based inhibition, dose response, selectivity assay for PAX8 inhibitor project, plate reader, dry powder samples (AID 743048);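 note: HEK293 cells carrying a WT1 promoter luciferase reporter driven by expressed Pax2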", "type": "functional"}, "[11]": {"assay": "cytotoxicity in OVCAR4 cells, dose response, cytotoxicity control for PAX8 inhibitor project, cell-based, plate reader, dry powder, SA11 (AID 743150)", "type": "functional", "details": "OVCAR-4"}, "[12]": {"assay": "cytotoxicity in COV362 ovarian cancer cells, dose response, cytotoxicity control for PAX8 inhibitor project, cell-based, plate reader, dry powder, SA12 (AID 743144)", "type": "functional"}, "[13]": {"assay": "cytotoxicity in COV434 cells, dose response, cytotoxicity control for PAX8 inhibitor project, cell-based, plate reader, dry powder, SA7 (AID 743145)", "type": "functional"}, "[14]": {"assay": "cytotoxicity in OV-90 ovarian cancer cells, dose response, PAX8 inhibitor project, cell-based, plate reader, dry powder, SA8 (AID 743149)", "type": "functional"}, "[15]": {"assay": "NIH:OVCAR-3 ovarian cancer cell cytotoxicity, dose response, PAX8 inhibitor project, plate reader, dry powder samples (AID 743044)", "type": "functional, cell-based"}, "Paired box protein Pax-8": {"target": "Paired box protein Pax-8 (Homo sapiens, UniProt Q06710)", "assay": "inhibitors of PAX8-driven TPO luciferase reporter, dose response, RMG-I cells, cherry-pick (AID 687027);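 note: luciferase reporter driven by Pax8 target thyroperoxidase promoter measured by SteadyGlo luminescence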", "type": "functional, cell-based"}, "[16]": {"assay": "cytotoxicity in OVCAR8 ovarian cancer cells, dose response, PAX8 project, cell-based, plate reader, dry powder samples (AID 743197)", "type": "functional", "details": "OVCAR-8"}, "[17]": {"assay": "PAX5 activity inhibitors, dose response, selectivity assay for PAX8 inhibitor project, cell-based, plate reader, dry powder samples (AID 743047);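 note: HEK293 cells carrying a Pax5 driven CD19 promoter luciferase reporter; potency of inhibitors that lower reporter luminescence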", "type": "functional"}, "[18]": {"assay": "cytotoxicity dependent on PAX8, dose response, cell-based, plate reader, dry powder (AID 743049)", "type": "functional"}},
  "note": "The source made the active and inactive calls.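 Throughout, for EC50: target is galanin receptor GalR3 read with a cAMP biosensor in HEK293 cells.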",
  "data": [
    {"compound": "Cc1nnc(S)c2nn(-c3ccccc3F)c(C)c12", "values": [
      {"measurement": "IC50", "setting": "cells [1]", "value": "> 138 µM (inactive)"},
      {"measurement": "IC50", "setting": "Major prion protein", "value": "8.71 µM (active)"}
    ]},
    {"compound": "CCOC(=O)c1c(-c2ccccc2)oc2cc(Br)c(O)cc12", "values": [
      {"measurement": "IC50", "setting": "cells [1]", "value": "60 µM (inactive)"},
      {"measurement": "IC50", "setting": "Major prion protein", "value": "1.44 µM (active)"}
    ]},
    {"compound": "Cc1cccc(C(=O)Nc2cccc(NC(=O)c3ccccc3C(C)C)c2)c1", "values": [
      {"measurement": "IC50", "setting": "[2]", "value": "2.39 µM (active)"}
    ]},
    {"compound": "Cc1ccnc(SCC(=O)Nc2sc3c(c2C#N)CCCC3)n1", "values": [
      {"measurement": "AC50", "setting": "[3]", "value": "5 µM (active)"},
      {"measurement": "AC50", "setting": "[4]", "value": "11.9 µM (active)"},
      {"measurement": "AC50", "setting": "[5]", "value": "1.18 µM (active)"},
      {"measurement": "AC50", "setting": "[6]", "value": "66.8 µM (active)"},
      {"measurement": "EC50", "setting": "cells [7]", "value": "> 29.9 µM (inactive)"},
      {"measurement": "IC50", "setting": "Galanin receptor type 3", "value": "> 1.11 µM (active)"},
      {"measurement": "AC50", "setting": "[8]", "value": "0.955 µM (active)"}
    ]},
    {"compound": "COc1ccc(CN(C)C[C@H]2OCCCC[C@H](C)Oc3ccc(NC(=O)Nc4ccc(C(F)(F)F)cc4)cc3C(=O)N([C@@H](C)CO)C[C@H]2C)cc1", "values": [
      {"measurement": "AC50", "setting": "[9]", "value": "25.1 µM (active)"},
      {"measurement": "AC50", "setting": "[10]", "value": "31.6 µM (active)"},
      {"measurement": "AC50", "setting": "[11]", "value": "40.5 µM (active)"},
      {"measurement": "AC50", "setting": "[12]", "value": "> 70 µM (inactive)"},
      {"measurement": "AC50", "setting": "[13]", "value": "34.4 µM (active)"},
      {"measurement": "AC50", "setting": "[14]", "value": "33.7 µM (active)"},
      {"measurement": "AC50", "setting": "[15]", "value": "22.4 µM (active)"},
      {"measurement": "AC50", "setting": "Paired box protein Pax-8", "value": "5.98 µM (active)"},
      {"measurement": "AC50", "setting": "[16]", "value": "22 µM (active)"},
      {"measurement": "AC50", "setting": "[17]", "value": "> 70 µM (inactive)"},
      {"measurement": "AC50", "setting": "[18]", "value": "14.4 µM (active)"}
    ]}
  ]
}
